The results in this text go back to US20240409482A1, “Novel Compound and Organic Light Emitting Device Comprising the Same” (LG Chem, Ltd., priority 2022, published 2024).

This data set can be described thus: Solubility measurement in cyclohexanone. In kind it is physicochemical. Details: key to Solubility (1.3 wt %): “O” means that the compound was easily dissolved in cyclohexanone; “A” means that the compound was dissolved in cyclohexanone at 80° C.; “X” means that the compound is not soluble in cyclohexanone. The following applies: for Solubility (1.3 wt %): in cyclohexanone at a concentration of 1.3 wt % at 25° C.; for Solubility in cyclohexanone, result in words: concentration of 1.3 wt %, room temperature. As for the experimental part:
It was confirmed whether each of Compounds 1 to 14, Compound A and Compound B prepared in Preparation Examples could be dissolved in cyclohexanone at a concentration of 1.3 wt % at 25° C., and the results are shown in Table 1 below. At this time, “O” means that the compound was easily dissolved in cyclohexanone, “A” means that the compound was dissolved in cyclohexanone at 80° C., and “X” means that the compound is not soluble in cyclohexanone.

Each structure is given as a SMILES string.

On to `c1ccc2cc(-c3c4ccccc4c(-c4ccc(-c5cccc6ccc(-c7ccc8cccc(-c9c%10ccccc%10c(-c%10ccc%11ccccc%11c%10)c%10ccccc9%10)c8c7)cc56)cc4)c4ccccc34)ccc2c1` [Compound 1], for which the “Solubility (1.3 wt %)” value is on record as “◯”.
For `c1ccc2cc(-c3ccc(-c4c5ccccc5c(-c5cccc6ccc(-c7ccc8cccc(-c9c%10ccccc%10c(-c%10ccc%11ccccc%11c%10)c%10ccccc9%10)c8c7)cc56)c5ccccc45)cc3)ccc2c1` [Compound 2], the “Solubility (1.3 wt %)” value is “◯”.
Consider `c1ccc2cc(-c3c4ccccc4c(-c4cccc5ccc(-c6ccc7cccc(-c8c9ccccc9c(-c9ccc(-c%10cccc%11ccccc%10%11)cc9)c9ccccc89)c7c6)cc45)c4ccccc34)ccc2c1` [Compound 3], for which the “Solubility (1.3 wt %)” value is “◯”.
Regarding `c1cc(-c2cccc3ccc(-c4ccc5cccc(-c6c7ccccc7c(-c7ccc8ccccc8c7)c7ccccc67)c5c4)cc23)cc(-c2c3ccccc3c(-c3cccc4ccccc34)c3ccccc23)c1` [Compound 4], the “Solubility (1.3 wt %)” value was “◯”.
Turning to `c1cc(-c2cccc3ccc(-c4ccc5cccc(-c6c7ccccc7c(-c7ccc8ccccc8c7)c7ccccc67)c5c4)cc23)cc(-c2c3ccccc3c(-c3ccc4ccccc4c3)c3ccccc23)c1` [Compound 5], the “Solubility (1.3 wt %)” value was “◯”.
Still for that read-out and setting: to `c1cc(-c2ccc(-c3c4ccccc4c(-c4cccc5ccccc45)c4ccccc34)cc2)c2cc(-c3ccc4cccc(-c5c6ccccc6c(-c6cccc7oc8ccccc8c67)c6ccccc56)c4c3)ccc2c1` [Compound 6] belongs “◯”; to `c1cc(-c2cccc3ccc(-c4ccc5cccc(-c6c7ccccc7c(-c7ccc8oc9ccccc9c8c7)c7ccccc67)c5c4)cc23)cc(-c2c3ccccc3c(-c3ccc4ccccc4c3)c3ccccc23)c1` [Compound 7], “◯”.
Regarding `c1cc(-c2ccc(-c3c4ccccc4c(-c4cccc5ccccc45)c4ccccc34)cc2)c2cc(-c3ccc4cccc(-c5c6ccccc6c(-c6ccc7oc8ccccc8c7c6)c6ccccc56)c4c3)ccc2c1` [Compound 8], the “Solubility (1.3 wt %)” value is “◯”.
As to `c1ccc2c(-c3c4ccccc4c(-c4ccc(-c5ccc6ccc(-c7ccc8ccc(-c9c%10ccccc%10c(-c%10ccc%11oc%12ccccc%12c%11c%10)c%10ccccc9%10)cc8c7)cc6c5)cc4)c4ccccc34)cccc2c1` [Compound 9], the “Solubility (1.3 wt %)” value is given as “◯”.
The same measure, in the same setting: the entry for `c1ccc2cc(-c3c4ccccc4c(-c4ccc5ccc(-c6ccc7ccc(-c8c9ccccc9c(-c9ccc(-c%10cccc%11ccccc%10%11)cc9)c9ccccc89)cc7c6)cc5c4)c4ccccc34)ccc2c1` [Compound 10] is “◯”.
`c1ccc2cc(-c3c4ccccc4c(-c4ccc(-c5cccc6cc(-c7ccc8c(-c9c%10ccccc%10c(-c%10ccc%11ccccc%11c%10)c%10ccccc9%10)cccc8c7)ccc56)cc4)c4ccccc34)ccc2c1` [Compound 11]: the “Solubility (1.3 wt %)” value is reported as “◯”.
Consider `c1cc(-c2ccc(-c3c4ccccc4c(-c4cccc5ccccc45)c4ccccc34)cc2)c2ccc(-c3ccc4c(-c5c6ccccc6c(-c6ccc7oc8ccccc8c7c6)c6ccccc56)cccc4c3)cc2c1` [Compound 12], for which the “Solubility (1.3 wt %)” value is reported as “◯”.
On to `c1ccc(-c2c3ccccc3c(-c3ccc(-c4ccc5cc(-c6ccc7cc(-c8c9ccccc9c(-c9ccccc9)c9ccccc89)ccc7c6)ccc5c4)cc3)c3ccccc23)cc1` [Compound A], for which the “Solubility in cyclohexanone, result in words” value is “could not be dissolved at room temperature” and the “Solubility (1.3 wt %)” value is on record as “X”.
For the molecule `c1ccc2c(-c3ccc(-c4c5ccccc5c(-c5ccc(-c6cccc7c(-c8cccc9ccc(-c%10ccc(-c%11c%12ccccc%12c(-c%12cccc%13ccccc%12%13)c%12ccccc%11%12)cc%10)cc89)cccc67)cc5)c5ccccc45)cc3)cccc2c1` [Compound B, reference compound], the “Solubility in cyclohexanone, result in words” value is listed as “could not be dissolved at room temperature” and the “Solubility (1.3 wt %)” value was “Δ”.
